This is an account of results in US20230114241A1, “METHODS OF TREATING EPILEPSY USING THE SAME” (Trevena, Inc., priority 2019, published 2023).

Data set [1] concerns the target hERG channel (Homo sapiens, UniProt Q12809). Nature of the data set: cell-based.
Data set [2] addresses T1, human sphingosine-1-phosphate receptor 1 (S1P1) (Homo sapiens, UniProt P21453). Nature of the data set: β-Arrestin2 recruitment assay (PathHunter), S1P1 CHO-K1 cells. The settings on record: for Emax: efficacy normalized to maximum efficacy of fingolimod, read-out: hS1P1 B-arrestin2 SPAN; for EC50: β-arrestin2 recruitment, read-out: hS1P1 B-arrestin2 pEC50 (converted). In kind it is cell-based. Put shortly:
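Agonist-driven β-arrestin2 recruitment measured by β-galactosidase complementation after 60 min compound exposure at 37 °C and 1 h detection at room temperature. Cells: stable CHO-K1 line expressing tagged human S1P1 with EA-β-arrestin2, plated the night before. Data expressed relative to fingolimod.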
For orientation: Recruitment of arrestin is a read-out of receptor activation apart from second messengers.
Target sequence in this assay (P21453 whole entry): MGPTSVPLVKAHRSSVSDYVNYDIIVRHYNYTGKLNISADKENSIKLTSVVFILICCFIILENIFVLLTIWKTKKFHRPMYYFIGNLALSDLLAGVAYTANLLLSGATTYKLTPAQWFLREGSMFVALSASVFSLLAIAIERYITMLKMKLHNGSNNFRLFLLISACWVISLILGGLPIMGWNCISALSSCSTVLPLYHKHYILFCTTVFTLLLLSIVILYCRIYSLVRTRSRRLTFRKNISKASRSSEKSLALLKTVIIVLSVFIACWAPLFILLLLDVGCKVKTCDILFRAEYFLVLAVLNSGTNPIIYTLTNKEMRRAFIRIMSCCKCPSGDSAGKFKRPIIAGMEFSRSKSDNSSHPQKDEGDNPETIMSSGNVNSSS
Target sequence in this assay (P32121 whole entry partner): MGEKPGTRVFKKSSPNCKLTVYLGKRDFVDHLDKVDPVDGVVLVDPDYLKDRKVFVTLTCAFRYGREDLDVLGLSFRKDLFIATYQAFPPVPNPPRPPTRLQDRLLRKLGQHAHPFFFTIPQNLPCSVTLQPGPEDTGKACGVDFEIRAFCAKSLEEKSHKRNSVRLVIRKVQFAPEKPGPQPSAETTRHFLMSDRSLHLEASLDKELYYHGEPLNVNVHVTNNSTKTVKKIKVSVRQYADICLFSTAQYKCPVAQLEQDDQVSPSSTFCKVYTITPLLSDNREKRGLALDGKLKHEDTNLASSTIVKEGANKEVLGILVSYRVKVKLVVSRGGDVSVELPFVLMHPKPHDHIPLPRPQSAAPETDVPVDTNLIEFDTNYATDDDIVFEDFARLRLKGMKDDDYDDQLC

Data set [3] deals with human sphingosine-1-phosphate receptor 3 (S1P3) (Homo sapiens, UniProt Q99500). The experiment in a line: Selectivity: inhibition of cAMP production (HTRF), S1P3 CHO-K1 cells. In kind it is cell-based. The settings on record: for Emax: CHO-K1, efficacy normalized to maximal efficacy of fimgolimod, read-out: hS1P3 cAMP SPAN; for EC50: inhibition of cAMP production, read-out: hS1P3 cAMP pEC50 (converted). A general note: Changes in cAMP serve as a functional read-out for many G protein-coupled receptors.

The target in data set [4] is sphingosine-1-phosphate receptor 5 (S1P5) (Homo sapiens, UniProt Q9H228). Nature of the data set: Selectivity: inhibition of cAMP production (HTRF), S1P5 CHO-K1 cells. The format is cell-based. To be noted: for Emax: CHO-K1, efficacy normalized to maximal efficacy of fimgolimod, read-out: hS1P5 cAMP SPAN; for EC50: inhibition of cAMP production, read-out: hS1P5 cAMP pEC50 (converted). The procedure: Cell Culturing and Assay Plating Cell lines were cultured in AssayComplete™ Media 6 (DiscoverX Corporation, Cat #: 920018GF2) at 37° C. and 5% CO2 in a humidified CO2 and temperature-controlled incubator. To begin assay plating, cells were washed with Dulbecco's phosphate buffered saline (CellGro, Cat #: 21-031-CV) and lifted from the culturing flask by incubation (37° C., 5 min) with CellStripper (Cellgro, Cat #: 25-056-CI). […] Plated cells were incubated overnight at 37° C. and 5% CO2 in a humidified CO2 and temperature-controlled incubator. Detecting Inhibition of cAMP Production
S1P3 and S1P5 Agonist-promoted G-protein responses were determined by measuring changes in intracellular cAMP using the HTRF® cAMP HiRange kit (CisBio, Cat #: 62AM6PEJ) based on time-resolved fluorescence resonance energy transfer (TR-FRET) technology. […] Following a 30-minute room temperature incubation the components of the cAMP HiRange kit were added as per the manufacturer's instructions. After an hour incubation at room temperature, plates were analyzed by a BMG PheraStar microplate reader.
These values are normalized to fimgolimod, a known agonist of the sphingosine-1-phosphate 3 and 5 receptor or CYM5520, a known agonist of the sphingosine-1-phosphate 2 receptor. The tables also include potency values (pEC50) for modulating discrete receptor-mediated activities (inhibition of cAMP production or inositol monophosphate accumulation).

The test system of data set [5] is peripheral blood lymphocytes. Nature of the data set: Lymphopenia: peripheral blood lymphocyte counts, acute and chronic s.c. dosing. In kind it is in vivo. The settings on record: 6 mg/kg sc, 7 days, c57bl/6 mice. Here is the method:
Compounds were tested for changes in peripheral blood lymphocytes in C57bl/6 mice. In acute studies, animals (n=5/group) were dosed subcutaneously with test compound at a dose of 3 mg/kg. Animals were sacrificed at specific time points and […] of whole blood was collected in EDTA (K2) Eppendorf tubes. Blood was stored on ice and shipped immediately overnight delivery to Charles River Laboratories for analysis. CRL ran samples through their WBC/differential panel on an Advia 120 instrument. We received peripheral lymphocyte counts (10^3 cells/μl) for each blood sample. Treatment group means were compared to a vehicle treatment group for statistical significance. In chronic studies, animals (n=6-8/group) were dosed subcutaneously for three to seven days with test compound at doses that were at least 5-fold higher than the efficacious dose in pharmacology/behavioral assays. On the last day, animals were sacrificed 45 minutes to 6 hrs after the final dose. Whole blood was collected and analyzed as described for acute studies. […]

Data set [6] deals with human sphingosine-1-phosphate receptor 2 (S1P2) (Homo sapiens, UniProt O95136). The experiment in a line: Selectivity: inositol monophosphate production (IP-one), S1P2 CHO-K1 cells. In kind it is cell-based. The settings on record: for Emax: CHO-K1, efficacy normalized to maximal efficacy of CYM5520, read-out: hS1P2 IP-one SPAN; for EC50: inositol monophosphate accumulation, read-out: hS1P2 IP-one pEC50 (converted).

Data set [7] deals with T1, human sphingosine-1-phosphate receptor 1 (S1P1). The experiment in a line: Inhibition of cAMP production (HTRF cAMP HiRange), S1P1 CHO-K1 cells. In kind it is cell-based. To be noted: for Emax: CHO-K1, efficacy normalized to maximum efficacy of fingolimod, read-out: hS1P1 CAMP SPAN; for EC50: read-out: hS1P1 CAMP pEC50 (converted). In outline: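 Intracellular cAMP changes read by TR-FRET (HTRF HiRange, 1 h room temperature) after 30 min compound exposure at 37 °C. Cells: overnight-plated CHO-K1 stably expressing tagged human S1P1 with EA-β-arrestin2. Responses normalized to fingolimod.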
Target sequence in this assay (P21453 whole entry): as the sequence (P21453 whole entry) above

The mark [8] stands for this setting: CHO-K1, β-arrestin2 recruitment.
Setting [9] is: inhibition of cAMP production, potency.

Structures are written as SMILES.

human sphingosine-1-phosphate receptor 3 (S1P3), sequence (Q99500 whole entry): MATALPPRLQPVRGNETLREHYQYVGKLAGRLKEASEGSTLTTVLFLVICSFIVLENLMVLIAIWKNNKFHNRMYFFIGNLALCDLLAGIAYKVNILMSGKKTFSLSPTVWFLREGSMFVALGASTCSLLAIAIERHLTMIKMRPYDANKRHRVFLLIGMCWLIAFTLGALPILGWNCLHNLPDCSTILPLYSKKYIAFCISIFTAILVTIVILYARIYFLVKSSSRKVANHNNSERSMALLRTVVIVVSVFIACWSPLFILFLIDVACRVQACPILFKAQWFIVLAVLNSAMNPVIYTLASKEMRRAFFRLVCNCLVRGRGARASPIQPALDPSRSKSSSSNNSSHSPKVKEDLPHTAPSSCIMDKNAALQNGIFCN
hERG channel, sequence (Q12809 whole entry): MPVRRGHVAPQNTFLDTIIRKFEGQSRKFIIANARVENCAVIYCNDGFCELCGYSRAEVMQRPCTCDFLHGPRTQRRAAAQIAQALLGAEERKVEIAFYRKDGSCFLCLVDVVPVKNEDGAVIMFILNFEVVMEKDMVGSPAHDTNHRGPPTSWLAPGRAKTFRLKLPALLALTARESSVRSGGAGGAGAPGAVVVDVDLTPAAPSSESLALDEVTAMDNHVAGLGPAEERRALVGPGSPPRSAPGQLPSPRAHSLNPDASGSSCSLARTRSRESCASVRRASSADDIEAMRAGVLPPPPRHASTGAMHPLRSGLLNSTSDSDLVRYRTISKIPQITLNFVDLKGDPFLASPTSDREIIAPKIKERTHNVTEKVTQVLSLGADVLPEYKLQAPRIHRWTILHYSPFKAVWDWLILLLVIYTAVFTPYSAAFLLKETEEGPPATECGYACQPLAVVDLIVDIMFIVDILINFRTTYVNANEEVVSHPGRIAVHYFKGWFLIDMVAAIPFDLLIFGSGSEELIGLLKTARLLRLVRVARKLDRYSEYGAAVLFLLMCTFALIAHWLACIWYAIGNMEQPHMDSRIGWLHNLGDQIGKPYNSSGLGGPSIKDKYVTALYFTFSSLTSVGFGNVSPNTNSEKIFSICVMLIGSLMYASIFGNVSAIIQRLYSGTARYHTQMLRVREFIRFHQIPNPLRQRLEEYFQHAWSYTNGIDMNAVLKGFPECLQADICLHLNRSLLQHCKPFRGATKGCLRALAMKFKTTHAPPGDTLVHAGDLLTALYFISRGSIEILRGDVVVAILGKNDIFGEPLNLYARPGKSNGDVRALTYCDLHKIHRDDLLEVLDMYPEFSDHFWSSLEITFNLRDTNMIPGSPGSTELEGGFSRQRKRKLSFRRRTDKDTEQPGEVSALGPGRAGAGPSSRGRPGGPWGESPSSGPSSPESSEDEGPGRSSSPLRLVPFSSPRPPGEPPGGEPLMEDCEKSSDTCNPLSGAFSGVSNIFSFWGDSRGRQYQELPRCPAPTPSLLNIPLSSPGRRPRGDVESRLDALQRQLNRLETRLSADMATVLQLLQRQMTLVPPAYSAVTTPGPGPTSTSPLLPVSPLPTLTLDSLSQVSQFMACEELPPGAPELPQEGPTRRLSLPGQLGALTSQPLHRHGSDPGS
sphingosine-1-phosphate receptor 5 (S1P5), sequence (Q9H228 whole entry): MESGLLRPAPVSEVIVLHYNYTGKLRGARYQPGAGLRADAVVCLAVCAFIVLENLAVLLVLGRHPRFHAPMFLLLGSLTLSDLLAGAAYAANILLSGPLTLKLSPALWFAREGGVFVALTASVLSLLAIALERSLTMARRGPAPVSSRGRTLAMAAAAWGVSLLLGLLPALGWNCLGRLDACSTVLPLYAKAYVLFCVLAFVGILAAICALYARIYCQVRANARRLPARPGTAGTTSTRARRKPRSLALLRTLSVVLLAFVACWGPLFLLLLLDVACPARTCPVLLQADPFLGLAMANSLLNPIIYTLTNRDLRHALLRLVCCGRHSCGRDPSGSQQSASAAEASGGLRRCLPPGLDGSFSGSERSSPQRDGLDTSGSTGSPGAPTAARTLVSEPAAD
human sphingosine-1-phosphate receptor 2 (S1P2), sequence (O95136 whole entry): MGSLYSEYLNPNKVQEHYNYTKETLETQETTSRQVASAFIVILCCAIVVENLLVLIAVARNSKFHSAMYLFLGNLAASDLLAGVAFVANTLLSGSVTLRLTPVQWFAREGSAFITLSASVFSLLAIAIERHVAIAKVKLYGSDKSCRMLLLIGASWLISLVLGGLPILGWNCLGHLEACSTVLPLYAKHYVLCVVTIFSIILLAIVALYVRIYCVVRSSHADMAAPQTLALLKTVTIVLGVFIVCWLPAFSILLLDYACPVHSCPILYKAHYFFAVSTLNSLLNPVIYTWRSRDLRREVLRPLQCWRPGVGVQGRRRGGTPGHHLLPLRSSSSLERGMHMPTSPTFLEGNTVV

What is called IC50 is the midpoint of a concentration-inhibition curve. A low value points to greater potency in that assay. For the compound `CC(C)n1nnc2cc(-c3nc(-c4cccc5c4OCCC5)no3)ccc21` [Compound 304, 3-chroman-8-yl-5-(1-isopropylbenzotriazol-5-yl)-1,2,4-oxadiazole], in data set [1], the IC50 was over 10 µM. Besides, the Emax in data set [2] (setting [8]) was over 75%; in data set [3], under 50%; in data set [4], under 50%; in data set [6] it was under 50%; in data set [7] (inhibition of cAMP production) it was under 75%. For the same compound, the EC50 in data set [2] (potency) is under 10 µM; in data set [3], under 10 µM; in data set [4], over 10 µM; in data set [6], over 10 µM; in data set [7] (setting [9]), under 0.316 µM. Further, the “Lymphopenia effect (peripheral blood lymphocytes)” value in data set [5] is “no change: 6 mg/kg, 7 days”.

`N#Cc1cc(-c2nc(-c3ccc4c(c3)NC(=O)C4)no2)ccc1NCC1CC1` [Compound 497, 2-((cyclopropyl-methyl)amino)-5-(3-(2-oxoindolin-6-yl)-1,2,4-oxadiazol-5-yl)benzonitrile]: the IC50 in data set [1] was over 10 µM. For the same compound, the Emax in data set [2] (CHO-K1) and in data set [7] was over 75% throughout. For the same compound, the EC50 was under 10 µM in data set [2] (S1P1) and under 0.316 µM in data set [7] (inhibition of cAMP production, S1P1).

`CC(C)Oc1ccc(-c2ncc(-c3ccnc(O)c3)cn2)cc1C#N` [Compound 744, 5-(5-(2-hydroxy-pyridin-4-yl)pyrimidin-2-yl)-2-isopropoxy-benzonitrile]: the IC50 in data set [1] was over 10 µM.

`COc1ccc(-c2noc(-c3ccc4c(c3)nnn4CC(C)(C)O)n2)c(C)c1` [Compound 26, 1-{5-[3-(4-methoxy-2-methylphenyl)-1,2,4-oxadiazol-5-yl]-1H-1,2,3-benzo-triazol-1-yl}-2-methylpropan-2-ol] gave an IC50 in data set [1] of over 10 µM. Moreover, the Emax in data set [2] (setting [8]) is over 75%; in data set [3], under 50%; in data set [4], under 50%; in data set [6], under 50%; in data set [7] (inhibition of cAMP production), over 75%. In addition, the EC50 in data set [2] (potency) is under 10 µM; in data set [3] it was over 10 µM; in data set [4], over 10 µM; in data set [6] it was over 10 µM; in data set [7] (setting [9]) it was under 0.316 µM.

As to `CC(C)Nc1ccc(-c2nc(-c3ccc4nonc4c3)no2)cc1C#N` [Compound 730, 5-[3-(2,1,3-benzoxa-diazol-5-yl)-1,2,4-oxadiazol-5-yl]-2-[(propan-2-yl)amino]benzonitrile], the IC50 in data set [1] was over 10 µM. In addition, the “Lymphopenia effect (peripheral blood lymphocytes)” value in data set [5] is “no change: 6 mg/kg, 7 days”.
